# Patent US12497460B2, “Anti-MSR1 antibodies and methods of use thereof” (REGENERON PHARMACEUTICALS, INC., priority 2018, dated 2025)
# pIC50: −log10 of the molar value. Counter-ions that a name gives are not always drawn. Like-named read-outs stand apart in the source and are kept apart here. Marks after values point to notes of the source that are not given here.
# Assays:
# LXR (THP1/LXR-Luc cells) = test: LXR-luciferase reporter bioassay (Example 31); assay type: cell-based, human; conditions: signal to noise, ratio of RLU of standard one over standard eight; 48 hours
# Text: Generation of assay cell line. To test the efficacy of anti-MSR1 antibody-LXR conjugates in vitro, a cell-based LXR responsive luciferase reporter assay was developed. To generate the assay cell line, a LXR regulated luciferase reporter gene [Cignal Lenti LXR Reporter (luc) kit (Qiagen, Cat #CLS-001 L)] was transduced into THP1 cells, and cells were selected for two weeks in puromycin. The lentivirus expresses the firefly luciferase gene under the control of a minimal CMV promoter and tandem repeats of the LXR transcriptional response element. The resulting cell line is referred to as THP1/LXR-Luc cells.
# Assay protocol. THP1/LXR-Luc cells were seeded onto 96 well plates at 40,000 cells/well in media containing RPMI supplemented with 10% FBS and pencillin/streptomycin and subsequently differentiated with 200 nM Phorbol Myristate Acetate (PMA) for 3 days. After the 3-day differentiation period, three-fold serial dilutions of antibody drug conjugates, unconjugated antibodies, or free payloads in fresh media were added to the cells at final concentration ranging from 100 nM to 0.01 nM. Media alone served as a blank control. Forty-eight hours later, luciferase activity was determined after the addition of One-Glo™ reagent (Promega, Cat #E6130) to each well. Relative light units (RLUs) were measured on a Victor luminometer (PerkinElmer) and EC50 values were determined using a four-parameter logistic equation over a 10-point dose response curve (GraphPad Prism). The signal to noise (S/N) was determined by calculating the ratio of RLU of standard one over RLU of standard eight for each of the unconjugated anti-MSR1 antibodies or free payloads. “LP #” represents a linker-payload for which the corresponding structures are provided elsewhere herein, and “P #” represents a payload for which the corresponding structures are provided elsewhere herein.
# [1] = test system: Msr1^hu/hu ApoE^−/− mice, peritoneal macrophages; test: LPS-mediated expression of CD80 on peritoneal macrophages (flow cytometry); assay type: in vivo, mouse; conditions: administered 2 hours before
# Protocol: (§1) Assay protocol for ex vivo LPS-induced responses. In ex vivo LPS challenge experiments, mice were intraperitoneally administered with 10 μL/g of anti-MSR1 antibody-steroid conjugates (H1H21234N-N297Q-LP13), isotype control steroid conjugate (Isotype control-LP13), unconjugated anti-MSR1 antibody (H1H21234N-N297Q) and isotype control antibodies at different time points (24, 48, and 72 hours) prior to harvesting the peritoneal cells from peritoneal cavity. […] All mice were sacrificed at 0 hour time point and peritoneal cells were obtained from the peritoneum by the peritoneal lavage technique. In brief, 5 mL of ice cold 1×PBS (ThermoFisher Scientific, Cat #20012027) containing 2% BSA (Gibco, Cat #A9576) and 0.6 mM EDTA (ThermoFisher Scientific, Cat #15575020) were injected into the peritoneal cavity using 27 g needle. […] The resuspended cells were plated at 500,000 cells per well in 24-well tissues culture plates and incubated with or without 10 ng/mL of LPS for 18 hours.
# (§2) Assay protocol for in vivo LPS-induced responses. In in vivo LPS challenge experiments, mice were intraperitoneally administered with 10 μL/g of decreasing concentrations of anti-MSR1 antibody-steroid conjugates (H1H21234N-N297Q-LP13) and isotype control steroid conjugate (Isotype control-N297Q-LP13) at 24 hours prior to in vivo LPS challenge. PBS and free steroid P4 were intraperitoneally injected at 2 hours prior to in vivo LPS challenge. At 0 hour time point, three large drops of blood (volume ˜ 100 μL) were collected from the maxillary vein of each mouse into serum gel separator tubes. The tubes were centrifuged at 2200-2500 rpm for 15 minutes, and the serum was collected into 96-well plates for subsequent measurement of cytokines. At 18 hours post in vivo LPS challenge, the peritoneal cells were obtained from periotenal cavity as aforementioned for subsequent flow cytometry analysis.
# Analysis of expression of activation markers on peritoneal macrophages after LPS ex vivo challenge. Upon collection of supernatants for cytokine analysis, the plates were washed twice with 1×PBS w/o Ca^++/Mg2^++ (ThermoFisher Scientific, Cat #14190144), and the adherent peritoneal cells were harvested by addition of 250-300 μL of cold Macrophage Detachment Solution DXF (PromoCell, Cat #C41330) for 40 minutes. The detached cells were collected into 50-mL tubes and centrifuged at 350×g for 15 minutes. After two washes with 1×PBS supplemented with 2 mM EDTA, the cells were resuspended in Cell Staining Buffer (Biolegend, #420201) and plated at 1×10^6 cells per well in a 96-well V bottom plate. […] Data were analyzed using FlowJo (Tree Star).
# [2] = test system: Msr1^hu/hu ApoE^−/− mice, peritoneal cells; test: Ex vivo LPS-induced cytokine production by peritoneal cells after in vivo dosing; design: species or system mouse
# Protocol: (§3) To examine the anti-inflammatory effect of the anti-MSR1 antibody-steroid conjugates, an ex-vivo and in vivo LPS-induced inflammatory immune response model was performed.
# (§4) Generation of a mouse inflammatory immune response model. Mice homozygously expressing human MSR1 extracellular domain in place of the mouse MSR1 extracellular domain and with a homozygous deletion of the ApoE gene were utilized (resulting mice referred to as Msr1^hu/hu ApoE^−/− mice).
# as §1
# Measurement of cytokines at 18 hours post-LPS ex vivo challenge. Supernatants were collected into 96-well round bottom tissue culture plates at 18 hours post-ex vivo LPS challenge and stored at […] until further analysis. Cytokine concentrations in the supernatants were measured using a Proinflammatory Panel 1 (mouse) multiplex immunoassay kit (MesoScale Diagnostics, Cat #K15048D) according to manufacturer's instructions. Electrochemiluminescence was read on a Meso Scale Diagnostics SECTOR® instrument. Data analysis was performed using GraphPad Prism™ software. Statistical significance within the groups was determined by one-way Anova with Turkey's multiple comparison post-test (*p<0.01; **p<0.001; ***p<0.0001).
# Msr1^hu/hu ApoE^−/− mice = test: In vivo LPS-induced cytokine production in serum; design: species or system mouse; conditions: 1.48 mg/kg, 2 hours before in vivo LPS
# Protocol: as §3, §4, §2
# [3] = test system: LPS-induced IL-1β release in differentiated THP-1 cells; test: LPS-mediated IL-1β release assay; assay type: cell-based, human; conditions: for pIC50: Homo sapiens
# Protocol: To test the anti-inflammatory properties of anti-MSR1 antibody-steroid conjugates in vitro, a lipopolysaccharide (LPS)-mediated IL-1β release assay was performed. For the assay, THP-1 cells were seeded onto 96 well plates at 40,000 cells/well in media containing RPMI supplemented with 10% FBS and pencillin/streptomycinin and differentiated with 200 nM Phorbol Myristate Acetate (PMA) for 3 days. After the 3-day differentiation period, three-fold serial dilutions of antibody drug conjugates, unconjugated antibodies, or free payloads in fresh media were added to the cells at final concentration ranging from 100 nM to 0.01 nM. Media alone served as a blank control. Subsequently at 24, 48, or 72 hours later, cells were treated with 100 ng/ml LPS (InVivoGen, Cat #tlrl-eklps) for 5 hours. The cell media was then collected, and IL-1β levels were measured using a V-PLEX Proinflammatory Panel 1 human kit (Meso Scale Diagnostics, Cat #15049D-2) as per manufacturer's instructions. Subsequently, the plate was read on a Meso Scale Diagnostics instrument.
# IC50 values were determined from a four-parameter logistic equation over a 10-point response curve (GraphPad Prism). All IC50 values are expressed in M (molar) concentration. The IC50 values and IL-1β amount at the maximum concentration of antibody-steroid conjugates or controls are shown in Table 22 each of the time point tested.
# [4] = administered 2 hours before peritoneal cell isolation, ex vivo LPS
smiles,measurement,setting,value
"C[C@]1(C(=O)NC(=O)[C@@]2(C)CCC[C@]3(C)c4cc(NC(=O)[C@@H](N)CCCCN)ccc4CC[C@@H]23)CCC[C@]2(C)c3cc(O)ccc3CC[C@@H]12 [P7, (1S,4aS,10aR)-N-[(1S,4aS,10aR)-6-Hydroxy-1,4a-dimethyl-1,2,3,4,4a,9,10,10a-octahydrophenanthrene-1-carbonyl]-6-[(2S)-2,6-diaminohexanamido]-1,4a-dimethyl-1,2,3,4,4a,9,10,10a-octahydrophenanthrene-1-carboxamide; trifluoroacetic acid salt]",S/N,LXR (THP1/LXR-Luc cells),8.9
"C[C@]1(C(=O)NC(=O)[C@@]2(C)CCC[C@]3(C)c4cc(NC(=O)[C@@H](N)CCC(=O)O)ccc4CC[C@@H]23)CCC[C@]2(C)c3cc(O)ccc3CC[C@@H]12 [P6, (4S)-4-Amino-4-{[(4bS,8S,8aR)-8-{[(1S,4aS,10aR)-6-hydroxy-1,4a-dimethyl-1,2,3,4,4a,9,10,10a-octahydrophenanthrene-1-carbonyl]carbamoyl}-4b,8-dimethyl-4b,5,6,7,8,8a,9,10-octahydrophenanthren-3-yl]carbamoyl}butanoic acid; trifluoroacetic acid salt]",S/N,LXR (THP1/LXR-Luc cells),8.3
"C[C@]1(C(=O)NC(=O)[C@@]2(C)CCC[C@]3(C)c4cc(NC(=O)[C@@H](N)CO)ccc4CC[C@@H]23)CCC[C@]2(C)c3cc(O)ccc3CC[C@@H]12 [P5, (1S,4aS,10aR)-6-((S)-2-Amino-3-hydroxypropanamido)-N-((1S,4aS,10aR)-6-hydroxy-1,4a-dimethyl-1,2,3,4,4a,9,10,10a-octahydrophenanthrene-1-carbonyl)-1,4a-dimethyl-1,2,3,4,4a,9,10,10a-octahydrophenanthrene-1-carboxamide]",S/N,LXR (THP1/LXR-Luc cells),5.7
"CCCC1O[C@@H]2C[C@H]3[C@@H]4C[C@H](F)C5=CC(=O)C=C[C@]5(C)[C@@]4(F)[C@@H](O)C[C@]3(C)[C@]2(C(=O)CN)O1 (mixture of isomers) [P4, (1S,2S,4R,6R,8S,9S,11S,12R,13S,19S)-8-(2-Aminoacetyl)-12,19-difluoro-11-hydroxy-9,13-dimethyl-6-propyl-5,7-dioxapentacyclo[10.8.0.0^2,9.0^4,8.0^13,18]icosa-14,17-dien-16-one]","LPS-mediated expression of CD80, pMΦ Cells",[1]; hMSR1+F4/80+CD11b+ peritoneal macrophages,54.7 ± 3.8 % relative to PBS/LPS-treatment
same,"LPS-mediated expression of CD80, non-pMΦ Cells",[1]; hMSR1−F4/80−CD11b− cells,93.02 ± 4.4 % relative to PBS/LPS-treatment
same,Cytokine IL-6,[2]; [4],12.98 ± 5.8**** ng/mL
same,Cytokine KC-GRO,[2]; [4],2.6 ± 1.3** ng/mL
same,Cytokine TNF-α,[2]; [4],0.43 ± 0.06** ng/mL
same,"effect on ex vivo LPS-induced cytokine production (IL-6, KC-GRO, TNF-α) by peritoneal cells","[2]; i.p. dosing 24, 48, 72 hours (conjugates, antibodies) or 2 hours (free steroids) before cell harvest, 10 ng/mL LPS 18 hours",Comparable inhibition of LPS-induced immune responses
same,Cytokine IL-6 in serum,Msr1^hu/hu ApoE^−/− mice,3.51 ± 0.7 ng/mL
same,Cytokine KC-GRO in serum,Msr1^hu/hu ApoE^−/− mice,4.1 ± 1.5 ng/mL
same,Cytokine TNF-α in serum,Msr1^hu/hu ApoE^−/− mice,0.09 ± 0.02 ng/mL
same,IL1beta released at max concentration tested,[3]; 24 hour treatment before LPS,43.39 pg/mL
same,IL1beta released at max concentration tested,[3]; 48 hour treatment before LPS,9.3 pg/mL
same,IL1beta released at max concentration tested,[3]; 72 hour treatment before LPS,12.95 pg/mL
same,pIC50,"[3]; THP-1, 24-hour time point, 100 ng/ml LPS for 5 hours, read-out: IC50, inhibition of LPS-induced IL-1β secretion",9.07
same,pIC50,"[3]; THP-1, 48-hour time point, 100 ng/ml LPS for 5 hours, read-out: IC50, inhibition of LPS-induced IL-1β secretion",8.99
same,pIC50,"[3]; THP-1, 72-hour time point, 100 ng/ml LPS for 5 hours, read-out: IC50, inhibition of LPS-induced IL-1β secretion",8.92
same,pIC50,"[3]; THP-1, 24 hour treatment before LPS, read-out: EC50 (the source's name)",9.07
same,pIC50,"[3]; THP-1, 48 hour treatment before LPS, read-out: EC50 (the source's name)",8.99
same,pIC50,"[3]; THP-1, 72 hour treatment before LPS, read-out: EC50 (the source's name)",8.92
